Experimental data published in ChEMBL document CHEMBL3751819, “Navigating into the chemical space between MGCD0103 and SAHA: novel histone deacetylase inhibitors as a promising lead” (Medchemcomm, 2015).
Calls of active or inactive are those of the source. The rule behind the calls is not given here.

Tests used:
HeLa [1] = assay: Induction of apoptosis in human HeLa cells assessed as late apoptotic cells at 1.25 uM after 48 hrs by annexin-V-FITC/propidium iodide staining based flow cytometry (reference value: 9.3%); type: functional
Histone deacetylase 3 = Histone deacetylase 3 (Homo sapiens, UniProt O15379); assay: Inhibition of HDAC3 (unknown origin) using Boc-Lys(acetyl)-AMC as substrate preincubated for 5 mins followed by substrate addition by fluorescence assay
Chain of Histone deacetylase 3 (O15379 whole entry): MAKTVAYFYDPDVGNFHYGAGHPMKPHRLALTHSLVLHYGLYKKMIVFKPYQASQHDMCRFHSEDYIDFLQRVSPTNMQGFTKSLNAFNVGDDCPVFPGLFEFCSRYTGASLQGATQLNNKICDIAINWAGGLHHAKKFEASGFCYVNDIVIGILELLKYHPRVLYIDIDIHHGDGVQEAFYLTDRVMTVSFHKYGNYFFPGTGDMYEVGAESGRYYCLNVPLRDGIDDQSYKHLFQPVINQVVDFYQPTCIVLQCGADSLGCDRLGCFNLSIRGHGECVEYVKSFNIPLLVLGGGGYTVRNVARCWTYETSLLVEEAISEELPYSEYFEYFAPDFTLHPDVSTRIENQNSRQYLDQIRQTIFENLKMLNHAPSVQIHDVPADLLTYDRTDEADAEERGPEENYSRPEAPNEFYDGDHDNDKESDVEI

MCF7 [2] = assay: Antiproliferative activity against human MCF7 cells assessed as reduction in cell viability after 72 hrs by MTT assay; type: functional, cell-based; conditions: MCF7, 72 h
HeLa [3] = assay: Induction of cell cycle arrest in human HeLa cells assessed as accumulation at G0/G1 phase at 2 uM after 24 hrs by propidium iodide staining based flow cytometry (reference value: 0.5 to 0.52%); type: functional
HepG2 [4] = assay: Antiproliferative activity against human HepG2 cells assessed as reduction in cell viability after 48 hrs by MTT assay; type: functional, cell-based; conditions: HepG2, 48 h
HeLa [5] = assay: Induction of apoptosis in human HeLa cells assessed as necrotic cells at 1.25 uM after 48 hrs by annexin-V-FITC/propidium iodide staining based flow cytometry (reference value: 0.693%); type: functional
HeLa [6] = assay: Induction of cell cycle arrest in human HeLa cells assessed as accumulation at S phase at 1 uM after 24 hrs by propidium iodide staining based flow cytometry (reference value: 0.12 to 0.13%); type: functional
[7] = Half life in mouse microsomes; type: ADME, Microsome
HeLa [8] = assay: Induction of apoptosis in human HeLa cells assessed as viable cells at 5 uM after 48 hrs by annexin-V-FITC/propidium iodide staining based flow cytometry (reference value: 88.6%); type: functional; conditions: Homo sapiens, HeLa, 48 h; read-out: Activity
HeLa [9] = assay: Induction of apoptosis in human HeLa cells assessed as necrotic cells at 2.5 uM after 48 hrs by annexin-V-FITC/propidium iodide staining based flow cytometry (reference value: 0.693%); type: functional
HeLa [10] = assay: Induction of apoptosis in human HeLa cells assessed as early apoptotic cells at 1.25 uM after 48 hrs by annexin-V-FITC/propidium iodide staining based flow cytometry (reference value: 1.4%); type: functional
HeLa [11] = assay: Induction of cell cycle arrest in human HeLa cells assessed as accumulation at S phase at 2 uM after 24 hrs by propidium iodide staining based flow cytometry (reference value: 0.12 to 0.13%); type: functional
HeLa [12] = assay: Induction of apoptosis in human HeLa cells assessed as early apoptotic cells at 5 uM after 48 hrs by annexin-V-FITC/propidium iodide staining based flow cytometry (reference value: 1.4%); type: functional
[13] = Antiproliferative activity against human HCT116 cells assessed as reduction in cell viability after 48 hrs by MTT assay; type: functional, cell-based; conditions: HCT-116, 48 h
HepG2 [14] = assay: Antiproliferative activity against human HepG2 cells assessed as reduction in cell viability after 24 hrs by MTT assay; type: functional, cell-based; conditions: HepG2, 24 h
Histone deacetylase 1 = Histone deacetylase 1 (Homo sapiens, UniProt Q13547); assay: Inhibition of HDAC1 (unknown origin) using Boc-Lys(acetyl)-AMC as substrate preincubated for 5 mins followed by substrate addition by fluorescence assay
Chain of Histone deacetylase 1 (Q13547 whole entry): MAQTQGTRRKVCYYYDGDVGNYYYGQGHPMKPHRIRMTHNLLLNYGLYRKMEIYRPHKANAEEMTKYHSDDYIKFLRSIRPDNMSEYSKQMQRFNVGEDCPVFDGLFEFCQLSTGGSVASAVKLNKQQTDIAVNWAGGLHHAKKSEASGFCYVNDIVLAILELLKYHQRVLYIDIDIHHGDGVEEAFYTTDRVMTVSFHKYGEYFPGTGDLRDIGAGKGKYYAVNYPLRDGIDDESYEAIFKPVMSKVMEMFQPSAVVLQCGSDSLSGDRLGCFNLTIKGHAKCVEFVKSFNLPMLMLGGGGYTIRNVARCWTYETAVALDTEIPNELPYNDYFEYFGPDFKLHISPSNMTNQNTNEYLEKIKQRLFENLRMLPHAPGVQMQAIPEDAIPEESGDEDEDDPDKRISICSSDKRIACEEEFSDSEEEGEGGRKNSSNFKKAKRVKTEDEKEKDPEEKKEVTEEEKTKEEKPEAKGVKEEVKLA

HeLa [15] = assay: Antiproliferative activity against human HeLa cells assessed as reduction in cell viability after 48 hrs by MTT assay; type: functional, cell-based
HeLa [16] = assay: Induction of cell cycle arrest in human HeLa cells assessed as accumulation at S phase at 0.5 uM after 24 hrs by propidium iodide staining based flow cytometry (reference value: 0.12 to 0.13%); type: functional
[17] = Half life in artificial gastric fluid; type: ADME
[18] = target: T1, Protein deacetylase HDAC6 (Homo sapiens) (UniProt Q9UBN7); assay: Inhibition of HDAC6 in human A549 cells assessed as increase in acetylated tubulin expression at 5 uM incubated for 12 hrs by DAPI staining based immunofluorescence microscopy; type: cell-based
T1 sequence (whole entry): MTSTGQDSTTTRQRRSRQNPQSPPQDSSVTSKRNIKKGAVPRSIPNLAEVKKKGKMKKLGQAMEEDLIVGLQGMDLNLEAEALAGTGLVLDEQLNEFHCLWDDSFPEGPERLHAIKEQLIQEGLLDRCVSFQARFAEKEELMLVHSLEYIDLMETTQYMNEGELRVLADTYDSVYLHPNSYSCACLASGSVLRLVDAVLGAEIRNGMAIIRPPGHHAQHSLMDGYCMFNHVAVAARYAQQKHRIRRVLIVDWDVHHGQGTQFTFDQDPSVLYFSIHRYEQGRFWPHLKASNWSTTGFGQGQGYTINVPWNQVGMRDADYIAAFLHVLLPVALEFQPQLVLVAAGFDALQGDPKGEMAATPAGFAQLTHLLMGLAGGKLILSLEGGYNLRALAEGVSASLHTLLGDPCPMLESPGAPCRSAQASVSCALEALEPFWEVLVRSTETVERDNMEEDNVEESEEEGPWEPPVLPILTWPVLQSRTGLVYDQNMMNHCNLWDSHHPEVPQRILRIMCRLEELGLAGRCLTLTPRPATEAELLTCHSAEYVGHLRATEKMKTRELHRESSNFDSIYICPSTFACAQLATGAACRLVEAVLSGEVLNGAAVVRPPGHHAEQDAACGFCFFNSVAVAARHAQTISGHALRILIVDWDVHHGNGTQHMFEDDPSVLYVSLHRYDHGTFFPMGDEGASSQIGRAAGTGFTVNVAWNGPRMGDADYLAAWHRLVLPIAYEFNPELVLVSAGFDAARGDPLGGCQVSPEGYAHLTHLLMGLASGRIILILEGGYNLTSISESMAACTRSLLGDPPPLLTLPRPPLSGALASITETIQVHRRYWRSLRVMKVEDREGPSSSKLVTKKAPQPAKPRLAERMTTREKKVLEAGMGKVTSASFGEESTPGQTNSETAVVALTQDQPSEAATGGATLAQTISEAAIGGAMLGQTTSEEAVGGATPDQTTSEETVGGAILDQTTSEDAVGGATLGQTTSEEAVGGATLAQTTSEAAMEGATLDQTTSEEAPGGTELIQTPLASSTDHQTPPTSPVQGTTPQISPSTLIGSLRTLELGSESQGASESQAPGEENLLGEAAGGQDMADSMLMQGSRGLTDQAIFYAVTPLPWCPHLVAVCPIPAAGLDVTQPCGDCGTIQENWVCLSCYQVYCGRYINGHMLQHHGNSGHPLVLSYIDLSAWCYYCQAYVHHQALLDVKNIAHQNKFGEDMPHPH

[19] = Half life in artificial intestinal fluid; type: ADME
[20] = Antiproliferative activity against human HCT116 cells assessed as reduction in cell viability after 72 hrs by MTT assay; type: functional, cell-based; conditions: HCT-116, 72 h
MCF7 [21] = assay: Antiproliferative activity against human MCF7 cells assessed as reduction in cell viability after 48 hrs by MTT assay; type: functional, cell-based; conditions: MCF7, 48 h
HeLa [22] = assay: Induction of apoptosis in human HeLa cells assessed as early apoptotic cells at 2.5 uM after 48 hrs by annexin-V-FITC/propidium iodide staining based flow cytometry (reference value: 1.4%); type: functional
HeLa [23] = assay: Antiproliferative activity against human HeLa cells assessed as reduction in cell viability after 72 hrs by MTT assay; type: functional, cell-based

Row | IC50 (Histone deacetylase 3) | IC50 (MCF7 [2]) | IC50 (HepG2 [4]) | half-life [7] | IC50 (HepG2 [14]) | IC50 (Histone deacetylase 1) | IC50 (HeLa [15]) | half-life [17] | inhibition [18] | SMILES | Activity (HeLa [1]) | Activity (HeLa [3]) | Activity (HeLa [5]) | Activity (HeLa [6]) | viability at 5 µM (HeLa [8]) | Activity (HeLa [9]) | Activity (HeLa [10]) | Activity (HeLa [11]) | Activity (HeLa [12]) | IC50 [13] | Activity (HeLa [16]) | further results
1 | 0.102 µM | 2.41 µM | 4.03 µM | 2.87 h | 22.9 µM | 0.065 µM | 7.23 µM | > 24 h | Active | O=C(NO)c1ccc(CNc2nccc(-c3cccnc3)n2)cc1 | 14.9% | 0.93% | 0.94% | 0.03% | 76.7% | 0.72% | 4.89% | 0.03% | 11.1% | < 0.88 µM | 0.13% | half-life [19]: > 24 h; IC50 [20]: 1.66 µM; IC50 (MCF7 [21]): 16 µM; Activity (HeLa [22]): 6.33%; IC50 (HeLa [23]): 3.17 µM
2 | 0.113 µM | 2.66 µM | 5.95 µM | 2.5 h | 20.5 µM | 0.082 µM | 3.79 µM | > 24 h | Active | O=C(/C=C/c1ccc(CNc2nccc(-c3cccnc3)n2)cc1)NO | 12.2% | 0.87% | 0.924% | 0.05% | 76.5% | 0.603% | 4.27% | 0.03% | 10.2% | < 0.81 µM | 0.13% | half-life [19]: > 24 h; IC50 [20]: 1.05 µM; IC50 (MCF7 [21]): 23 µM; Activity (HeLa [22]): 6.59%; IC50 (HeLa [23]): 3.24 µM
